The source made the active and inactive calls. No cut-off for these calls is given here.
How the values were obtained:
[1] = system: MCF7; experiment: Antioxidant activity in human MCF7 cells assessed as reduction of H2O2 production at 100 uM; type: functional, cell-based
[2] = system: MCF7; experiment: Protective effect against doxorubicin-induced oxidative stress in human MCF7 cells assessed as reduction of ROS level at 25 uM; type: functional, cell-based
[3] = system: MCF7; experiment: Cytotoxicity against human MCF7 cells at 100 uM; type: functional

Row | Structure (SMILES) | Activity [1] | Activity [2] | Activity [3] [%]
1 | Cc1cc(=O)oc2c(O)c(O)ccc12 | Active | Active | 
2 | Cc1c(Cl)c(=O)oc2c(O)c(O)ccc12 | Active |  | 
3 | CCCCCCCCCCCCSCc1cc(=O)oc2c(OC(C)=O)c(OC(C)=O)ccc12 | Active |  | 70

Source: ChEMBL document CHEMBL1143132, “Synthesis and protective effects of coumarin derivatives against oxidative stress induced by doxorubicin” (2008)
